Test system: corticospinal neurons (CSNs/CSMNs)
Test: Laser-capture microdissection and Illumina microarray gene expression in corticospinal neurons contralateral to stroke
Format: in vivo, rat
Conditions: for Signal Intensity, Treatment after Stroke: Inosine: CSMNs contralateral to SMA infarct
Protocol: In a separate group of animals (n=20), layer V pyramidal cells of the sensorimotor cortex were retrogradely labeled by injecting Alexa-Fluor-488-conjugated cholera toxin B subunit (CTB; 300 U/μl in sterile saline) into the cervical spinal cord. For this, animals were anesthetized with a combination of ketamine and Domitor (medetomidine) and a laminectomy was performed at the cervical level of the spinal cord (C2-C4). CTB was stereotaxically delivered into four sites lateral to the corticospinal tract. Injections (1.3 μl) were spaced 1 mm apart on the rostro-caudal axis, and were made 0.5 mm to the left and right of the midline. After allowing two weeks for transport of the tracer, we performed either sham surgery with no treatment (n=6) or stroke surgery combined with saline (n=3) or inosine (n=4) treatment as described above. Seven days later, animals were decapitated under transient gas anesthesia, brains were removed and rinsed in cold RPMI medium, and a tissue block containing the sensorimotor cortex was dissected and placed in OCT Tissue Tek Medium (Sakura Finetek USA Inc., CA) on dry ice within five minutes of death. Ten μm sections were cut onto precleaned Gold Seal RITE-ON glass slides (Gold Seal Prod-ucts, Portsmouth, N.H.), placed on dry ice, and rapidly stored at −80° C.
Slide-mounted sections were thawed and dehydrated in RNAse-free ethanol gradients and xylene. Retro-gradely labeled, fluorescent cortical pyramidal cells in the undamaged hemisphere were individually captured using the Arcturus VERITAS system. ≧500 cells were collected from each animal and stored in Arcturus extraction buffer at −80° C. Total RNA was extracted from cells using the Micro-to-Midi TotalRNA Purification System (Invitrogen, Carlsbad Calif.) and double-amplified using the TargetAmp 2-Round Aminoallyl-aRNA Amplification kit 1.0 (Epicentre, Madison, Wis.). Amplified RNA was checked for average fragment length using the Agilent RNA 6000 Nano LabChip kit (Agilent Technologies, Santa Clara, Calif.) and then biotinylated and hybridized (1 μg) on Illumina RatRef-12 Expression BeadChip arrays (Illumina, San Diego Calif.), querying the expression of >22,000 RefSeq-curated rat transcripts. Results were obtained from a total of 15 samples representing 6 untreated controls, 4 animals with stroke treated with saline and 5 animals with stroke treated with inosine. Slides were processed and scanned with Illumina BeadStation platform according to the manufacturer protocol.
Raw data was analyzed using Bioconductor packages (www.bioconductor.org, (Gentleman et al., 2004)). Low level quality-control analysis was performed using inter-array Pearson correlation and clustering based on variance. Two arrays (1 saline and 1 inosine-treated) were outliers and were excluded from the analysis. Data was normalized using quantile normalization, and analysis of differential expression was performed using a linear model fitting (LIMMA package, (Smyth, 2005). Differentially expressed genes were classified according to gene ontology using Bioconductor packages and online tools (DAVID, http://david.abcc.ncifcrf.gov/). Pathway analysis was carried out using Ingenuity Pathway Analysis (Ingenuity Systems, www.ingenuity.com).

[1] = ILMN_161110, similar to myo-inositol 1-phosphate synthase A1

## OC[C@H]1O[C@@H](n2cnc3c(O)ncnc32)[C@H](O)[C@@H]1O [inosine]
ILMN_70426
  Fold-Induction Stroke, ino vs. cntrl, Rpl31: 0.90
ILMN_70426, inosine after stroke
  Signal Intensity, Rpl31: 831
[1]
  Fold-Induction Stroke, ino vs. cntrl: 2.90
  Signal Intensity Inosine: 3241
Ifitm3 ILMN_48088
  Fold-Induction Stroke, ino vs. cntrl: 2.71
  Signal Intensity Inosine: 2516
Igfbp2 ILMN_54332
  Fold-Induction Stroke, ino vs. cntrl: 3.97
  Signal Intensity Inosine: 3801
Ing4 ILMN_54994
  Fold-Induction Stroke, ino vs. cntrl: 1.01
  Signal Intensity Inosine: 1169
Irf3 ILMN_51700
  Fold-Induction Stroke, ino vs. cntrl: 2.92
  Signal Intensity Inosine: 12720
LOC291847 ILMN_62527
  Fold-Induction Stroke, ino vs. cntrl: 1.32
  Signal Intensity Inosine: 558
LOC294337 ILMN_68161
  Fold-Induction Stroke, ino vs. cntrl: 2.56
  Signal Intensity Inosine: 2622
LOC295941 ILMN_58921
  Fold-Induction Stroke, ino vs. cntrl: 1.07
  Signal Intensity Inosine: 3970
LOC300149 ILMN_48288
  Fold-Induction Stroke, ino vs. cntrl: 1.34
  Signal Intensity Inosine: 2789
LOC301122 ILMN_62401
  Fold-Induction Stroke, ino vs. cntrl: 1.22
  Signal Intensity Inosine: 925
LOC303702 ILMN_64738
  Fold-Induction Stroke, ino vs. cntrl: 1.72
  Signal Intensity Inosine: 899
LOC303790 ILMN_56510
  Fold-Induction Stroke, ino vs. cntrl: 1.45
  Signal Intensity Inosine: 2300
LOC304116 ILMN_63846
  Fold-Induction Stroke, ino vs. cntrl: 0.99
  Signal Intensity Inosine: 393
LOC305076 ILMN_60367
  Fold-Induction Stroke, ino vs. cntrl: 1.56
  Signal Intensity Inosine: 824
LOC305633 ILMN_51277
  Fold-Induction Stroke, ino vs. cntrl: 2.99
  Signal Intensity Inosine: 2047
LOC317579 ILMN_58258
  Fold-Induction Stroke, ino vs. cntrl: 1.52
  Signal Intensity Inosine: 733
LOC360627 ILMN_61895
  Fold-Induction Stroke, ino vs. cntrl: 2.62
  Signal Intensity Inosine: 1064
LOC360644 ILMN_48641
  Fold-Induction Stroke, ino vs. cntrl: 3.68
  Signal Intensity Inosine: 602
LOC361080 ILMN_61547
  Fold-Induction Stroke, ino vs. cntrl: 0.40
  Signal Intensity Inosine: 295
LOC362015 ILMN_62932
  Fold-Induction Stroke, ino vs. cntrl: 1.37
  Signal Intensity Inosine: 1285
LOC362304 ILMN_53204
  Fold-Induction Stroke, ino vs. cntrl: 1.34
  Signal Intensity Inosine: 5067
LOC362857 ILMN_64100
  Fold-Induction Stroke, ino vs. cntrl: 0.43
  Signal Intensity Inosine: 1081
LOC497739 ILMN_66205
  Fold-Induction Stroke, ino vs. cntrl: 1.65
  Signal Intensity Inosine: 4864
LOC497841 ILMN_51249
  Fold-Induction Stroke, ino vs. cntrl: 11.52
  Signal Intensity Inosine: 2841
LOC498185 ILMN_58236
  Fold-Induction Stroke, ino vs. cntrl: 2.76
  Signal Intensity Inosine: 804
LOC498276 ILMN_65617
  Fold-Induction Stroke, ino vs. cntrl: 2.56
  Signal Intensity Inosine: 3014
LOC498279 ILMN_65961
  Fold-Induction Stroke, ino vs. cntrl: 4.07
  Signal Intensity Inosine: 8892
LOC498335 ILMN_53325
  Fold-Induction Stroke, ino vs. cntrl: 25.26
  Signal Intensity Inosine: 3310
LOC498614 ILMN_54303
  Fold-Induction Stroke, ino vs. cntrl: 1.05
  Signal Intensity Inosine: 2373
LOC498957 ILMN_67281
  Fold-Induction Stroke, ino vs. cntrl: 1.28
  Signal Intensity Inosine: 1081
LOC499244 ILMN_49099
  Fold-Induction Stroke, ino vs. cntrl: 2.24
  Signal Intensity Inosine: 14824
LOC500226 ILMN_54711
  Fold-Induction Stroke, ino vs. cntrl: 2.10
  Signal Intensity Inosine: 7922
LOC500804 ILMN_61346
  Fold-Induction Stroke, ino vs. cntrl: 2.35
  Signal Intensity Inosine: 5507
Lap3 ILMN_57870
  Fold-Induction Stroke, ino vs. cntrl: 1.01
  Signal Intensity Inosine: 918
Lcpl ILMN_58058
  Fold-Induction Stroke, ino vs. cntrl: 2.76
  Signal Intensity Inosine: 1306
Lgals3bp ILMN_60037
  Fold-Induction Stroke, ino vs. cntrl: 3.00
  Signal Intensity Inosine: 629
Man2b1 ILMN_65999
  Fold-Induction Stroke, ino vs. cntrl: 2.64
  Signal Intensity Inosine: 1676
Map2k6 ILMN_53013
  Fold-Induction Stroke, ino vs. cntrl: 1.19
  Signal Intensity Inosine: 3981
Mt1a ILMN_53575
  Fold-Induction Stroke, ino vs. cntrl: 3.68
  Signal Intensity Inosine: 3267
Nfkbia ILMN_49934
  Fold-Induction Stroke, ino vs. cntrl: 2.69
  Signal Intensity Inosine: 3250
Oplah ILMN_65374
  Fold-Induction Stroke, ino vs. cntrl: 2.05
  Signal Intensity Inosine: 2440
Pfc ILMN_56164
  Fold-Induction Stroke, ino vs. cntrl: 2.02
  Signal Intensity Inosine: 1375
Pkn1 ILMN_63766
  Fold-Induction Stroke, ino vs. cntrl: 1.69
  Signal Intensity Inosine: 2365
Plcd1 ILMN_50502
  Fold-Induction Stroke, ino vs. cntrl: 1.90
  Signal Intensity Inosine: 1514
Plek ILMN_57609
  Fold-Induction Stroke, ino vs. cntrl: 2.99
  Signal Intensity Inosine: 1937
Pnck ILMN_66828
  Fold-Induction Stroke, ino vs. cntrl: 1.65
  Signal Intensity Inosine: 8946
Polrmt ILMN_59207
  Fold-Induction Stroke, ino vs. cntrl: 1.52
  Signal Intensity Inosine: 1219
Ppp1r14b ILMN_59774
  Fold-Induction Stroke, ino vs. cntrl: 2.26
  Signal Intensity Inosine: 2071
Ptpn6 ILMN_61314
  Fold-Induction Stroke, ino vs. cntrl: 3.52
  Signal Intensity Inosine: 957
Ptprr ILMN_55987
  Fold-Induction Stroke, ino vs. cntrl: 1.04
  Signal Intensity Inosine: 676
RGD1309326 ILMN_60781
  Fold-Induction Stroke, ino vs. cntrl: 1.43
  Signal Intensity Inosine: 2333
RT1-Da ILMN_59933
  Fold-Induction Stroke, ino vs. cntrl: 11.11
  Signal Intensity Inosine: 3072
Rbl2 ILMN_59080
  Fold-Induction Stroke, ino vs. cntrl: 1.30
  Signal Intensity Inosine: 1060
Rfx1 ILMN_50833
  Fold-Induction Stroke, ino vs. cntrl: 1.51
  Signal Intensity Inosine: 4995
Rhoj ILMN_58882
  Fold-Induction Stroke, ino vs. cntrl: 2.67
  Signal Intensity Inosine: 588
Rhot2 ILMN_62537
  Fold-Induction Stroke, ino vs. cntrl: 1.68
  Signal Intensity Inosine: 1112
Rnaset2 ILMN_55431
  Fold-Induction Stroke, ino vs. cntrl: 2.31
  Signal Intensity Inosine: 7227
Serpinb1a ILMN_57422
  Fold-Induction Stroke, ino vs. cntrl: 2.68
  Signal Intensity Inosine: 589
Serping1 ILMN_60046
  Fold-Induction Stroke, ino vs. cntrl: 3.19
  Signal Intensity Inosine: 1251
Sgpp1 ILMN_57304
  Fold-Induction Stroke, ino vs. cntrl: 0.44
  Signal Intensity Inosine: 316
Slc9a1 ILMN_53105
  Fold-Induction Stroke, ino vs. cntrl: 1.32
  Signal Intensity Inosine: 2100
Slc35b4 ILMN_68450
  Fold-Induction Stroke, ino vs. cntrl: 1.41
  Signal Intensity Inosine: 430
Smoc2 ILMN_60870
  Fold-Induction Stroke, ino vs. cntrl: 3.79
  Signal Intensity Inosine: 1123
Soc ILMN_57817
  Fold-Induction Stroke, ino vs. cntrl: 1.36
  Signal Intensity Inosine: 1341
Srebf1 ILMN_51834
  Fold-Induction Stroke, ino vs. cntrl: 1.47
  Signal Intensity Inosine: 1069
Tcirg1 ILMN_52949
  Fold-Induction Stroke, ino vs. cntrl: 2.81
  Signal Intensity Inosine: 2173
Timp1 ILMN_62559
  Fold-Induction Stroke, ino vs. cntrl: 3.57
  Signal Intensity Inosine: 2293
Tle2 ILMN_54011
  Fold-Induction Stroke, ino vs. cntrl: 3.03
  Signal Intensity Inosine: 2295
Tm6p1 ILMN_57902
  Fold-Induction Stroke, ino vs. cntrl: 1.99
  Signal Intensity Inosine: 1532
Trim39 ILMN_54591
  Fold-Induction Stroke, ino vs. cntrl: 1.35
  Signal Intensity Inosine: 1351
Unc93b ILMN_53114
  Fold-Induction Stroke, ino vs. cntrl: 2.10
  Signal Intensity Inosine: 600
Gene P2rxl1 (ILMN_68585)
  Signal Intensity, Treatment after Stroke: Inosine: 246
Gene Tm7sf2 (ILMN_58100)
  Signal Intensity, Treatment after Stroke: Inosine: 419

Reference: US8912144B2, “Method for treating stroke via administration of NEP1-40 and inosine” (Children's Medical Center Corporation, priority 2003, dated 2014)
